Earlier results on five compounds are cited in article PMC12979414, “Ascending single-dose study of the safety, pharmacokinetics, and pharmacodynamics of CSTI-500, a novel monoamine triple reuptake inhibitor, first-in-human” (Psychopharmacology, 2025).

Details of data set [1]: method as in Zheng et al. [2015]. The conditions noted are these: multiple-ascending-dose study, healthy subjects; ref Zheng et al. [2015].
Details of data set [2]: method as in Deest et al. [2021]. The conditions noted are these: PWS patients, 6 months, doses as low as 25 mg; ref Deest et al. [2021].
The conditions of data set [3]: clinical trials for Parkinson's disease; ref Astrup et al. [2008].
Where [4] appears, read: PET occupancy study in healthy subjects, ref Learned et al. [2012].

Each structure is given as a SMILES string. Where two headings read alike, the source gives them in different places.

Turning to `CN1Cc2cc(-c3ccc(N)nn3)ccc2[C@H](c2ccc3ccccc3c2)C1` [BMS-820836], the heart rate entry in data set [1] was “linear dose-related escalation in heart rate”. Moreover, the SERT occupancy entry in the data set with SERT (0.5 mg/d, near steady-state, healthy subjects, ref Zheng et al. [2015]) is recorded as “about 80%”. In the data set on DAT (0.5-2 mg/d, healthy volunteers, ref Zheng et al. [2015]), the “striatal DAT occupancies” value is on record as 14-30%. For the same compound, the clinical efficacy entry (0.25-2 mg/d, treatment-resistant MDD, two phase IIb trials, ref Bhagwagar et al. [2015]) was “no clinical superiority compared to duloxetine or escitalopram treatment”.

In the case of `COC[C@@H]1[C@@H](c2ccc(Cl)c(Cl)c2)C[C@@H]2CC[C@H]1N2` [GSK372475], the SERT occupancy in the data set on SERT (setting [4]) is 55-75%. Moreover, in the data set on DAT (setting [4]), the DAT occupancy is 60-80%. For the same compound, the efficacy and tolerability entry (1-2 mg/d, two 10-week phase II trials in MDD patients, ref Learned et al. [2012]) is “neither efficacious nor well-tolerated”.

For `N[C@@H]1CC[C@@H](c2ccc(Cl)c(Cl)c2)c2ccccc21` [SEP-225289], the SERT occupancy result in the data set with SERT (single-doses 8-16 mg, healthy volunteers, all doses, ref DeLorenzo et al. [2011]) is “below 20%”. In addition, the “DAT occupancies, average values” in the data set on DAT (single-doses 8-16 mg, healthy volunteers, ref DeLorenzo et al. [2011]) is listed as 33-49%. For the same compound, for the setting “phase II study in MDD patients, 8 weeks of treatment, ref Sharma et al. [2015]”, the depression symptoms result is on record as “no reduction of depression symptoms”.

As for `CN[C@H]1CC[C@@H](c2ccc(Cl)c(Cl)c2)c2ccccc21` [sertraline], the temper outbursts entry in data set [2] is “significantly reduced the temper outbursts”.

For `CCOC[C@@H]1[C@@H](c2ccc(Cl)c(Cl)c2)C[C@@H]2CC[C@H]1N2C` [tesofensine], the “weight loss as an AE” value in data set [3] is recorded as “significant weight loss”.
